{"source": "paper PMC5729429", "about": "“Gimatecan exerts potent antitumor activity against gastric cancer in vitro and in vivo via AKT and MAPK signaling pathways” (Journal of Translational Medicine, 2017)", "key": {"HGC27 cells": {"tested_on": "HGC27 cells", "assay": "Annexin V-PE/7-AAD apoptosis assay (flow cytometry), HGC27", "assay_type": "cell-based, human", "settings": "1000 nM, 24 h", "protocol": "(§1) Apoptosis was measured by staining with phycoerythrin (PE)-annexin V and 7-amino-actinomycin (7-AAD) (BD Biosciences, Erembodegem, Belgium) for 15 min at room temperature in the dark, followed by flow cytometry (BD Biosciences) within 1 h. Apoptosis was analyzed with FlowJo 7.6 software (FlowJo, LLC, Ashland, Oregon).\nSupplementary file 12967_2017_1360_MOESM2_ESM.pdf: Additional file 2: Figure S2. Gimatecan induces apoptosis in HGC27 cell line. (A) Compared with irinotecan, gimatecan induced higher cell apoptosis in HGC27 cell. Cells were treated with gimatecan (0–1 µM) and irinotecan (0–1 µM) for 24 h and stained with Annexin V-PE/7-AAD. Sums of percentages of early apoptosis (Q3) and late apoptosis (Q2) were calculated as the total apoptosis ratios. (B) Pro- and anti-apoptotic proteins including Bcl-2, Bak, PARP and cleaved PARP were assessed by western-blotting in HGC27 cell. Western-blotting bands were quantified and normalized by ImageJ. All data are means ± SD of three independent experiments. *Compared with controls, p < 0.05; ns, p > 0.05."}, "NCI-N87 cells": {"tested_on": "NCI-N87 cells", "assay": "Annexin V-PE/7-AAD apoptosis assay (flow cytometry), NCI-N87", "assay_type": "cell-based, human", "settings": "1000 nM, 24 h", "protocol": "as §1\nCells were treated with gimatecan (0–1 µM) and irinotecan (0–1 µM) for 24 h and stained with Annexin V-PE/7-AAD. Sums of percentages of early apoptosis (Q3) and late apoptosis (Q2) were calculated as the total apoptosis ratios. c, d Pro- and anti-apoptotic proteins including Bcl-2, Bak, PARP and cleaved PARP were assessed by western-blotting in SNU-1 and NCI-N87 cells. Western-blotting bands were quantified and normalized by ImageJ. […] They are left out because no substance is present, and they are also barely readable."}}}
{"compound": "CC[C@@]1(O)C(=O)OCc2c1cc1n(c2=O)Cc2c-1nc1ccccc1c2/C=N/OC(C)(C)C", "note": "[Gimatecan, 7-t-butoxyiminomethylcamptothecin]", "values": [{"measurement": "proportion of apoptotic cells", "setting": "HGC27 cells", "result": "14.27 ± 1.69", "unit": "%"}, {"measurement": "proportion of apoptotic cells", "setting": "NCI-N87 cells", "result": "12.29 ± 2.24", "unit": "%"}]}
